Reference: patent US20100029654A1, “CARDIOVASCULAR COMPOSITIONS AND USE OF THE SAME FOR THE TREATMENT OF ALZHEIMER'S DISEASE” (MOUNT SINAI SCHOOL OF MEDICINE, priority 2006, published 2010)
Counter-ions that a name gives are not always drawn. Like-named read-outs stand apart in the source and are kept apart here.

Tests used:
[1] = system: primary cortico-hippocampal neuron cultures; test: lactate dehydrogenase (LDH) activity assay in parallel neuron cultures
Description: For in vitro treatments drugs available from “The Spectrum Collection” in stocks of 10 mM in DMSO were applied directly to cultures to the desired concentrations (final 1% DMSO); control primary neuron cultures from Tg2576 embryos were treated with vehicle resulting in a final 1% DMSO.
Cell viability was assessed using a commercial available LDH assay kit according to the manufacture's instruction (Promega).

Aβ1-40 = Aβ1-40 content in conditioned medium of primary cortico-hippocampal neuron cultures from Tg2576 mice (ELISA; primary and secondary dose-response screening); assay type: cell-based, mouse; conditions: for activity at 100 µM: Mus musculus, Neuron, 24 h, drug 100 μM, read-out: Ab1-40 (% of ctl); for reduced Aβ1-40: <85% of ctl
Outline: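 Primary cortico-hippocampal neurons from embryonic Tg2576 mice were plated at 1.0×10^5 cells per well on poly-D-lysine-coated 96-well plates in Neurobasal with 2% B27, 0.5 mM L-glutamine and 1% penicillin-streptomycin. Cultures received drug in 1% DMSO, and Aβ1-40 in the conditioned medium was measured by BioSource ELISA 24 hours after treatment, relative to vehicle controls.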

Aβ1-42 = Aβ1-42 content in conditioned medium of primary cortico-hippocampal neuron cultures from Tg2576 mice (ELISA; primary and secondary dose-response screening); assay type: cell-based, mouse; conditions: for activity at 100 µM: Mus musculus, Neuron, 24 h, drug 100 μM, read-out: Ab1-42 (% of ctl); for reducing Aβ1-42: <85% of ctl
Outline: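 This screen tested cardiovascular drugs for Aβ-lowering in Tg2576 embryonic cortico-hippocampal neuron cultures plated at 1.0×10^5 cells per well in poly-D-lysine-coated 96-well plates with Neurobasal/B27 medium. Drugs at 100 μM were added directly to the medium in duplicate, with 1% DMSO alone as the control. Conditioned medium was then collected, and its Aβ1-42 level was quantified with BioSource ELISA kits.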

[2] = system: primary cortico-hippocampal neuron cultures; test: MTT in primary screening
[3] = Primary Screening, table sorted by Aβ1-40
[4] = primary screening, table sorted by Aβ1-42
[5] = primary screening, Tg2576 neuron cultures, table sorted by Aβ1-42

Which “LDH (% of ctl)” value [1, 3] does the source give for CCOC(=O)[C@H](CCc1ccccc1)N[C@H]1CCc2ccccc2N(CC(=O)O)C1=O [Benazepril Hydrochloride] here?
Its value is 103.5 % of ctl.

And the “LDH (% of ctl)” value [1, 4]?
The value was 103.5 % of ctl.

What about the activity at 100 µM (Aβ1-40; [3]) of the same compound?
Its activity at 100 µM is 116%.

And the activity at 100 µM (Aβ1-40; [5])?
Its activity at 100 µM is 116%.

What about the activity at 100 µM (Aβ1-42; [3]) of the same compound?
The activity at 100 µM was 115%.

What about the activity at 100 µM (Aβ1-42; [5]) of the same compound?
Its activity at 100 µM is 115%.

And the “MTT (% of ctl)” value [2, 3]?
Its value is 99.5 % of ctl.

And the “MTT (% of ctl)” value [2, 4]?
The value was 99.5 % of ctl.

What does the source list for CCOC(=O)C1=C[C@]2(CC)CCCN3CCc4c(n1c1ccccc41)[C@@H]32 [Vinpocetine]?
LDH (% of ctl) [1, 3]: 111.3 % of ctl; LDH (% of ctl) [1, 4]: 111.3 % of ctl; activity at 100 µM (Aβ1-40; [3]): 60.4%; activity at 100 µM (Aβ1-40; [5]): 60.4%; reduced Aβ1-40 (Aβ1-40; primary screening): reduced Aβ1-40; activity at 100 µM (Aβ1-42; [3]): 105%; activity at 100 µM (Aβ1-42; [5]): 105%; MTT (% of ctl) [2, 3]: 87.7 % of ctl; MTT (% of ctl) [2, 4]: 87.7 % of ctl

With CCOC(=O)C(C)(C)Oc1ccc(Cl)cc1 [Clofibrate] as the compound, how does the “LDH (% of ctl)” value [1, 3] read?
Its value is 110.5 % of ctl.

What about the “LDH (% of ctl)” value [1, 4] of the same compound?
The value was 110.5 % of ctl.

And the activity at 100 µM (Aβ1-40; [3])?
Its activity at 100 µM is 90.9%.

What about the activity at 100 µM (Aβ1-40; [5]) of the same compound?
The activity at 100 µM was 90.9%.

What about the activity at 100 µM (Aβ1-42; [3]) of the same compound?
The activity at 100 µM was 92.5%.

And the activity at 100 µM (Aβ1-42; [5])?
Its activity at 100 µM is 92.5%.

What about the “MTT (% of ctl)” value [2, 3] of the same compound?
Its value is 97.9 % of ctl.

What about the “MTT (% of ctl)” value [2, 4] of the same compound?
Its value is 97.9 % of ctl.

Which results are given for CC(C)COCC(CN(Cc1ccccc1)c1ccccc1)N1CCCC1 (stereo not drawn) [Bepridil Hydrochloride]?
LDH (% of ctl) [1, 3]: 1885.2 % of ctl; LDH (% of ctl) [1, 4]: 1885.2 % of ctl; activity at 100 µM (Aβ1-40; [3]): 5.1%; activity at 100 µM (Aβ1-40; [5]): 5.1%; reduced Aβ1-40 (Aβ1-40; primary screening): reduced Aβ1-40; activity at 100 µM (Aβ1-42; [3]): 19.9%; activity at 100 µM (Aβ1-42; [5]): 19.9%; reducing Aβ1-42 (Aβ1-42; primary screening): useful in reducing Aβ1-42; MTT (% of ctl) [2, 3]: 77.1 % of ctl; MTT (% of ctl) [2, 4]: 77.1 % of ctl

What does the source list for COc1ccc([C@@H]2Sc3ccccc3N(CCN(C)C)C(=O)[C@@H]2OC(C)=O)cc1 [Diltiazem Hydrochloride]?
LDH (% of ctl) [1, 3]: 96.1 % of ctl; LDH (% of ctl) [1, 4]: 96.1 % of ctl; activity at 100 µM (Aβ1-40; [3]): 108%; activity at 100 µM (Aβ1-40; [5]): 108%; activity at 100 µM (Aβ1-42; [3]): 98.9%; activity at 100 µM (Aβ1-42; [5]): 98.9%; MTT (% of ctl) [2, 3]: 97.8 % of ctl; MTT (% of ctl) [2, 4]: 97.8 % of ctl

For NS(=O)(=O)c1cc(C(=O)O)c(NCc2ccco2)cc1Cl [Furosemide], which “LDH (% of ctl)” value [1, 3] is on record?
Its value is 98.2 % of ctl.

What about the “LDH (% of ctl)” value [1, 4] of the same compound?
The value was 98.2 % of ctl.

What about the activity at 100 µM (Aβ1-40; [3]) of the same compound?
Its activity at 100 µM is 118%.

And the activity at 100 µM (Aβ1-40; [5])?
The activity at 100 µM was 118%.

And the activity at 100 µM (Aβ1-42; [3])?
The activity at 100 µM was 95.7%.

And the activity at 100 µM (Aβ1-42; [5])?
The activity at 100 µM was 95.7%.

What about the “MTT (% of ctl)” value [2, 3] of the same compound?
The value was 101.0 % of ctl.

What about the “MTT (% of ctl)” value [2, 4] of the same compound?
Its value is 101.0 % of ctl.

For Cn1cnc2c1c(=O)[nH]c(=O)n2C [Theobromine], which “LDH (% of ctl)” value [1, 3] is on record?
Its value is 118.3 % of ctl.

What about the “LDH (% of ctl)” value [1, 4] of the same compound?
The value was 118.3 % of ctl.

What about the activity at 100 µM (Aβ1-40; [3]) of the same compound?
Its activity at 100 µM is 101%.

What about the activity at 100 µM (Aβ1-40; [5]) of the same compound?
Its activity at 100 µM is 101%.

And the activity at 100 µM (Aβ1-42; [3])?
The activity at 100 µM was 117%.

And the activity at 100 µM (Aβ1-42; [5])?
Its activity at 100 µM is 117%.

And the “MTT (% of ctl)” value [2, 3]?
Its value is 97.2 % of ctl.

What about the “MTT (% of ctl)” value [2, 4] of the same compound?
The value was 97.2 % of ctl.

CC(C)(Sc1cc(C(C)(C)C)c(O)c(C(C)(C)C)c1)Sc1cc(C(C)(C)C)c(O)c(C(C)(C)C)c1 [Probucol] was tested. Which “LDH (% of ctl)” value [1, 3] did it give?
Its value is 109.3 % of ctl.

What about the “LDH (% of ctl)” value [1, 4] of the same compound?
The value was 109.3 % of ctl.

And the activity at 100 µM (Aβ1-40; [3])?
Its activity at 100 µM is 76.8%.

And the activity at 100 µM (Aβ1-40; [5])?
Its activity at 100 µM is 76.8%.

What about the “reduced Aβ1-40” value (Aβ1-40; primary screening) of the same compound?
Its value is “reduced Aβ1-40”.

What about the activity at 100 µM (Aβ1-42; [3]) of the same compound?
The activity at 100 µM was 136%.

And the activity at 100 µM (Aβ1-42; [5])?
Its activity at 100 µM is 136%.

And the “MTT (% of ctl)” value [2, 3]?
The value was 94.8 % of ctl.

What about the “MTT (% of ctl)” value [2, 4] of the same compound?
The value was 94.8 % of ctl.

What does the source list for CC(C)NCC(O)COc1cccc2[nH]ccc12 (stereo not drawn) [Pindolol]?
LDH (% of ctl) [1, 3]: 171.7 % of ctl; LDH (% of ctl) [1, 4]: 171.7 % of ctl; activity at 100 µM (Aβ1-40; [3]): 99%; activity at 100 µM (Aβ1-40; [5]): 99%; activity at 100 µM (Aβ1-42; [3]): 46.1%; activity at 100 µM (Aβ1-42; [5]): 46.1%; reducing Aβ1-42 (Aβ1-42; primary screening): useful in reducing Aβ1-42; MTT (% of ctl) [2, 3]: 98.9 % of ctl; MTT (% of ctl) [2, 4]: 98.9 % of ctl

For CCCc1nc(C(C)(C)O)c(C(=O)OCc2oc(=O)oc2C)n1Cc1ccc(-c2ccccc2-c2nnn[nH]2)cc1 [Olmesartan Medoxomil], which “LDH (% of ctl)” value [1, 3] is on record?
The value was 90.7 % of ctl.

And the “LDH (% of ctl)” value [1, 4]?
The value was 90.7 % of ctl.

And the activity at 100 µM (Aβ1-40; [3])?
Its activity at 100 µM is 83.9%.

What about the activity at 100 µM (Aβ1-40; [5]) of the same compound?
The activity at 100 µM was 83.9%.

And the “reduced Aβ1-40” value (Aβ1-40; primary screening)?
Its value is “reduced Aβ1-40”.

What about the activity at 100 µM (Aβ1-42; [3]) of the same compound?
The activity at 100 µM was 70.7%.

And the activity at 100 µM (Aβ1-42; [5])?
Its activity at 100 µM is 70.7%.

And the “reducing Aβ1-42” value (Aβ1-42; primary screening)?
The value was “useful in reducing Aβ1-42”.

What about the “MTT (% of ctl)” value [2, 3] of the same compound?
Its value is 90.7 % of ctl.

And the “MTT (% of ctl)” value [2, 4]?
Its value is 90.7 % of ctl.
